From article PMC3653948, “PDZ Domain-Mediated Interactions of G Protein-Coupled Receptors with Postsynaptic Density Protein 95: Quantitative Characterization of Interactions” (PLoS ONE, 2013)
Peptide text beside a SMILES is read from it.

How the values were obtained:
PSD-95 PDZ1 = biological target: T1, PSD-95 PDZ1 (Homo sapiens, UniProt P78352); assay: SPR steady-state binding to immobilized PSD-95 PDZ1
T1 construct: PSD-95 PDZ1 (aa 61–151); made in house; host or cells: E. coli One Shot BL21 Star (DE3)
Description: (§1) To confirm the affinities measured by FP using an orthogonal method and to get information about the kinetics of the GPCR–PDZ interactions, we used SPR. This label-free, surface sensitive technique measures the binding of a ligand to an immobilized protein as a function of time based on refractive index changes.
(§2) For each of the PSD-95 PDZ domains, we determined the K d and the stability of the complexes for selected GPCR C-tail peptides. The residence time τ ( = 1/k d) was used as a convenient measure of the stability of the complexes. […] The K d determined from the steady-state responses of a range of C-tail peptide concentrations (Figure 2B and Table S4) correlated well with the K i values obtained by FP (Figure S1).
(§3) A Biacore X100 (GE Healthcare) SPR instrument equilibrated to 25.0°C and equipped with a Sensor Chip CM5 (for PDZ1 and PDZ2) or CM4 (for PDZ3) (GE Healthcare) was used for the SPR measurements. The running buffer was HBS-EP+ (10 mM HEPES pH 7.4, 150 mM NaCl, 3 mM EDTA, 0.05% Surfactant P-20 (GE Healthcare)).
PDZ domains were immobilized by amine coupling at a flow rate of 5 µl/min on a surface activated by a 7 min injection of a 1∶1 mixture of 0.4 M 1-ethyl-3-(3-dimethylaminopropyl) carbodiimide (EDC) and 0.1 M N-hydroxysuccinimide (NHS). The remaining active groups were deactivated by a 7 min injection of 1 M ethanolamine HCl pH 8.5. 750 RU PDZ1, 780 RU PDZ2, and 410 RU PDZ3 were immobilized.
GPCR C-tail peptide samples were injected in increasing concentrations for 1 min with 1 min dissociation time at 30 µl/min. Reproducibility was tested by injecting the 20 µM sample again after the highest concentration sample. The binding curves were corrected by subtraction of buffer blanks and the response from a reference surface that was activated with EDC and NHS and deactivated with ethanolamine like the surface with immobilized PDZ domain. For peptides with a cysteine, 1 mM dithiothreitol (DTT) was added to the samples. Steady-state response curves were plotted from the responses 10 s before injection end. The K d was determined by fitting steady-state response curves to a 1∶1 binding model with a linear component to corrrect for low affinity binding, probably resulting from the immobilization: Y = Ymax × X/(X+K d)+B × X.

PSD-95 PDZ2 = biological target: T2, PSD-95 PDZ2 (Homo sapiens, UniProt P78352); assay: SPR steady-state binding to immobilized PSD-95 PDZ2
T2 construct: PDZ2 (aa 155–249); made in house; host or cells: E. coli One Shot BL21 Star (DE3)
Description: as §1, §2
as §3, with “Healthcare)). […]” for “Healthcare)).”
(§4) GPCR C-tail peptide samples were injected in increasing concentrations for 1 min with 1 min dissociation time at 30 µl/min. […] The K d was determined by fitting steady-state response curves to a 1∶1 binding model with a linear component to corrrect for low affinity binding, probably resulting from the immobilization: Y = Ymax × X/(X+K d)+B × X.

PSD-95 = assay: FP competition assay, PSD-95 PDZ domains overall (strongest binding domain / non-binders); settings: FP competition with the isolated PDZ domains, peptide typically 1–512 µM
Protocol: We used a competition set-up, where a constant concentration of isolated PSD-95 PDZ domain and a labeled reference ligand was titrated with unlabeled peptides from the GPCR C-tail library, typically within a 1–512 µM concentration range, and the resulting curves were fitted to obtain the IC50, which was used to calculate the K i (Figure 1). Three Cy5-labeled peptides with well-documented interactions with PSD-95 were used as reference ligands for the competition assay: Cy5-KIF1Bα was used for PDZ1 [20], Cy5-GluN2B (formerly known as NR2B) was used for PDZ2 and PDZ1-2 [21], and Cy5-CRIPT was used for PDZ3 [22] (Table S1). Competition with unlabeled versions of the reference ligands was used to validate the FP assay by comparison with the literature (Table S2).
FP measurements were performed in black, flat bottom 384-well NBS microplates (Corning) on a Synergy H4 microplatereader (BioTek Instruments) equipped with a 620/40 nm excitation filter, a 680/30 nm emission filter, and a 660 nm dichroic mirror. Polarization values were corrected with blank samples and samples with fluorescent probe alone. At least 10 data points were measured for each curve, and each data point was measured in triplicate. 25 nM Cy5-labeled probe was used for each assay: Cy5-KIF1Bα for PDZ1, Cy5-GluN2B for PDZ2 and PDZ1-2, and Cy5-CRIPT for PDZ3. All FP measurements were performed in a buffer containing 10 mM HEPES pH 7.4, 150 mM NaCl, and 1% BSA and incubated at least 15 min at room temperature before reading. The signal was stable for more than an hour, showing that the reaction was at equilibrium.
For the competition binding curves, probe was mixed with a constant concentration of PDZ protein corresponding to the K d and a twofold dilution series of unlabeled peptide in a total volume of 30 µl. The baseline was determined using a sample containing only probe. The IC50 was determined by fitting to a 1∶1 binding model: Y = Ymax − Ymax × X/(X+IC50). The K i was calculated from the IC50 and from the K d for the interaction between the PDZ protein and the probe as described previously.

PSD-95 PDZ3 = biological target: T3, PSD-95 PDZ3 (Homo sapiens, UniProt P78352); assay: SPR steady-state binding to immobilized PSD-95 PDZ3
T3 construct: made in house; host or cells: E. coli One Shot BL21 Star (DE3)
Description: as §1, §2
as §3, with “Healthcare)). […]” for “Healthcare)).”
as §4

PSD-95 PDZ domains = assay: Time-resolved SPR, PSD-95 PDZ domains (kinetics); type: binding; settings: 500 µM C-tail peptide, all three PDZ domains
Description: as §2
For all combinations of PDZ domains and GPCR C-tail peptides, we observed dissociation of the complexes within the first second of the dissociation phase (Figure 2A) (faster than the time-resolution of the instrument), meaning that τ is less than 1 s (k d >1 s^−1). This implies that the GPCR–PDZ complexes are very transient, which is in agreement with previous work.
A Biacore X100 (GE Healthcare) SPR instrument equilibrated to 25.0°C and equipped with a Sensor Chip CM5 (for PDZ1 and PDZ2) or CM4 (for PDZ3) (GE Healthcare) was used for the SPR measurements. […]
as §4

Kd (PSD-95 PDZ1): > 1 mM | Kd (PSD-95 PDZ2): > 1 mM | Interaction with PSD-95 using fluorescence polarization (PSD-95): not to interact | Kd (PSD-95 PDZ3): > 1 mM | Time-resolved binding to PSD-95 PDZ1, PDZ2 and PDZ3 by SPR (PSD-95 PDZ domains): did not interact
Structure (SMILES): CC[C@H](C)[C@H](NC(=O)[C@H](CO)NC(=O)[C@H](CO)NC(=O)[C@H](CCC(=O)O)NC(=O)[C@@H](NC(=O)[C@H](Cc1c[nH]c2ccccc12)NC(=O)[C@H](C)NC(=O)[C@H](CCCNC(=N)N)NC(=O)[C@H](CCCNC(=N)N)NC(=O)[C@H](CC(=O)O)NC(=O)[C@@H](N)CC(=O)O)[C@@H](C)O)C(=O)N[C@@H](CC(N)=O)C(=O)N[C@H](C(=O)O)[C@@H](C)O (H-DDRRAWTESSINT-OH; N-terminus assumed)
